Test results published in US7833983B2, “Analytical method and kit thereof” (Phadia, AB, priority 2003, dated 2010).
Several values for one entry are separate records, joined by “and”; a condition that tells them apart may be missing. Identical values can stand only once. Non-standard residues stand in square brackets, D forms with d. No end group written: not given here. Arg(Me2s) = CN=C(NC)NCCC[C@H](N)C(=O)O

Legend:
anti-Sm antibodies [1] = experiment: Epitope-mapping with immobilized oligopeptides (peptide arrays) probed with anti-Sm sera; format: binding, human; conditions: for number of anti-Sm sera recognizing the peptide: panel of five anti-Sm sera (#36, #37, #31, #84, #Sm), serum 1:100, ECL detection
Excerpt: The published sequences of SmD1, P13641, (Rokeach et al., 1988) and SmD3, P43331, (Lehmeier et al., 1994) were used to synthesize overlapping 15 mer peptides with a pipetting robot according to the protocol described by Gausepohl and Behn (2002). The C-terminal extensions of both polypeptides were synthesized with an offset of 2 amino acids (13 amino acids overlap). Each arginine containing peptide was synthesized as three variants, with natural arginine, with sDMA or with asymmetrical dimethylarginine (asDMA) at the respective positions. Later on, a highly reactive peptide of SmD3 was synthesized with certain combinations of natural arginine and sDMA. Following completion of the peptide synthesis non-specific binding sites were blocked by over-night incubation of the membranes in blocking buffer (BB) at room temperature (RT). After one washing step membranes were incubated with serum samples at a dilution of 1:100 in BB for 2 h at RT. Unbound antibodies were removed by three washing steps. For detection peroxidase conjugated goat-anti-human IgG antibody was diluted 1:5000 in BB and incubated for 75 min (RT). Superfluous secondary antibodies were removed by three washing steps. Finally, bound antibodies were visualized using the enhanced chemoluminiscence (ECL) detection-system.
Epitope fine-mapping of the C-terminal extensions of SmD1 and D3. To evaluate the effect of arginine-dimethylation on the antigenicity of SmD1 and SmD3 and to map relevant epitopes on both polypeptides a panel of anti-Sm sera was tested with peptide arrays (15 mer, 2 offset) covering the C-terminal region of SmD1 (P13641) and SmD3 (P43331).

Lupus-prone mice = conditions: injection; peptide fused to a carrier protein; Riemekasten et al., 2001; cited from earlier work
anti-Sm antibodies [2] = experiment: Correlation study: anti-S33 ELISA versus commercially available anti-Sm antibody tests; format: binding, human; conditions: for Reactivity of control serum: suggested cut-off 13
Description: Randomly selected SLE sera (n=50) and various controls (n=100) were tested using the commercially available anti-Sm antibody tests from different suppliers (Sm test A—Sm Test D) and the results were compared to the findings of the anti-S33 ELISA test.

pI of the peptide = format: physicochemical
anti-S33 antibodies = experiment: S33-peptide ELISA (Varelisa protocol) with patient and control sera; format: binding, human
Excerpt: (§1) Sera (n=628) were collected from patients suffering from systemic lupus erytlhrematosus (SLE; n=176), rheumatoid arthritis (RA, n=86), Sjögren syndrome (SS, n=24); mixed connective tissue disease (MCTD, n=26), scleroderma (SSc, n=26) and polymyositis/dermatomyositis (PM/DM, n=13). All patients were classified according to the ACR-criteria for each disease (Tan et al., 1982; Arnett et al., 1988). To further assess the assay specificity, we analyzed a group of sera from patients with infection diseases (n=77) including hepatitis-C (HCV; n=30), cytomegalo (CMV; n=22) and Epstein-Barr Virus (EBV; n=25) as well as from 192 healthy blood donors. All sera were stored at −80° C. until use. For epitope-mapping a panel of five sera containing anti-Sm antibodies was used. As negative controls autoimmune sera with other antibody specificities than anti-Sm were selected.
Preparation of ELISA-plates. The lyophilized S33 peptide was used to prepare a stock solution of 10 μg/μl, which was stored in aliquots at −20° C. until use. Binding of the peptide to ELISA plates was carried out using 2.5 μg/ml of the peptide in coating buffer in a final volume of 120 μl per well. The coating procedure was carried out at 15° C. for 20 h. Unspecific binding sites were blocked with blocking solution. After discarding the blocking solution solid phases were dried at 37° C. for 2 h and sealed.
The assay was performed according to the general protocol of the Varelisa® system (Pharmacia Diagnostics, Freiburg). […] The cut-off was technically set to 13 U/ml after ROC-analysis. PPVs and NPVs were calculated at different cut-off values. […]
A 15 amino acid soluble peptide displaying highest sensitivity and specificity in the SPOT-assay (^108AARGsdRGRGMGRGNIF^122) (SEQ ID NO: 1) was synthesized for technical reasons with an additional Cys at the C-terminus. This peptide was subsequently used to develop an ELISA system based on the general protocol of the Varelisa® tests (Pharmacia, Freiburg, Germany).

[3] = test system: anti-centromere antibodies (ACA; serum CEN); experiment: Epitope-mapping with immobilized oligopeptides (peptide arrays) probed with control sera (e.g. CEN); format: binding, human; conditions: serum 1:100
Excerpt: as §1
The published sequences of SmD1, P13641, (Rokeach et al., 1988) and SmD3, P43331, (Lehmeier et al., 1994) were used to synthesize overlapping 15 mer peptides with a pipetting robot according to the protocol described by Gausepohl and Behn (2002). The C-terminal extensions of both polypeptides were synthesized with an offset of 2 amino acids (13 amino acids overlap). […]

[4] = Rheumatic diseases (181), cut-off 13 U/ml
[5] = randomly selected SLE sera (n = 101)

## AAsdRGsdRGsdRGMGsdRGNIF (AA[Arg(Me2s)]G[Arg(Me2s)]G[Arg(Me2s)]GMG[Arg(Me2s)]GNIF) [peptide no. 77, SmD3 aa 108-122 with all arginines as sDMA]
anti-Sm antibodies [1]
  number of anti-Sm sera recognizing the peptide: three out of five
anti-Sm antibodies [1]; listed as SEQ ID NO: 3
  number of anti-Sm sera recognizing the peptide: Three out of five

## KREAVAGRGRGRGRG [compound 10, SmD1 array peptide; text describes glycine and DMA repeats]
anti-Sm antibodies [1]; anti-SmD sera #36, #37, #31, #84, #Sm, peptide arrays
  binding of anti-Sm antibodies (in words): strong reactivity

## synthetic peptide corresponding to the C-terminal extension of SmD1: literature SmD1 aa 83-119 peptide (Riemekasten et al., 1998) used in an ELISA (VEPKVKSKKREAVAGRGRGRGRGRGRGRGRGRGGPRR; UniProt P62314 83-119, looked up, fragment)
Lupus-prone mice
  effect on the pathogenic process of Lupus-prone mice: accelerate the pathogenic process

## AARG sdR GRGMGRGNIF (AARG[Arg(Me2s)]GRGMGRGNIF) [S33, SmD3 aa 108-122 mimotope peptide with a single symmetrical dimethylarginine at position 112; ELISA version with additional C-terminal Cys]
anti-Sm antibodies [2]; 50 randomly selected SLE sera
  % of SLE sera positive: 12%
  number of SLE sera positive: 6
anti-Sm antibodies [2]; 100 controls
  % of controls positive: 0%
  number of controls positive: none
anti-Sm antibodies [2]; serum No. 105, ID 25516, MCTD
  Reactivity of control serum: 3.0 U/ml
anti-Sm antibodies [2]; serum No. 107, ID 25518, MCTD
  Reactivity of control serum: 1.0 U/ml
anti-Sm antibodies [2]; serum No. 108, ID 25519, MCTD
  Reactivity of control serum: 0.0 U/ml
anti-Sm antibodies [2]; serum No. 110, ID 25521, MCTD
  Reactivity of control serum: 0.5 U/ml
anti-Sm antibodies [2]; serum No. 112, ID 25523, MCTD
  Reactivity of control serum: 0.0 U/ml
anti-Sm antibodies [2]; serum No. 121, ID 25532, MCTD
  Reactivity of control serum: 2.6 U/ml
anti-Sm antibodies [2]; serum No. 123, ID 25534, MCTD
  Reactivity of control serum: 1.1 U/ml
anti-Sm antibodies [2]; serum No. 126, ID 25537, MCTD
  Reactivity of control serum: 3.2 U/ml
anti-Sm antibodies [2]; serum No. 128, ID 25539, MCTD
  Reactivity of control serum: 0.7 U/ml
anti-Sm antibodies [2]; serum No. 129, ID 25540, MCTD
  Reactivity of control serum: 4.1 U/ml
anti-Sm antibodies [2]; serum No. 132, ID 25543, MCTD
  Reactivity of control serum: 2.4 U/ml
anti-Sm antibodies [2]; serum No. 133, ID 25544, MCTD, SLE
  Reactivity of control serum: 9.9 U/ml
anti-Sm antibodies [2]; serum No. 137, ID 25448, SSc
  Reactivity of control serum: 2.2 U/ml
anti-Sm antibodies [2]; serum No. 145, ID 25456, MCTD
  Reactivity of control serum: 1.1 U/ml
pI of the peptide
  pI: > 12.88
anti-S33 antibodies; CMV (22)
  Mean value: 0.8 U/ml
  Top value: 3.2 U/ml
anti-S33 antibodies; CMV (22), cut-off 13 U/ml
  No. of anti-S33-positive sera: 0
anti-S33 antibodies; EBV (25)
  Mean value: 0.78 U/ml
  Top value: 3.3 U/ml
anti-S33 antibodies; HCV (30)
  Mean value: 0.42 U/ml
  Top value: 1.1 U/ml
anti-S33 antibodies; HCV (30), cut-off 13 U/ml
  No. of anti-S33-positive sera: 0
anti-S33 antibodies; Healthy individuals (192)
  Mean value: 2.2 U/ml and 2.21 U/ml
  Top value: 11.5 U/ml
anti-S33 antibodies; Healthy individuals (192), cut-off 13 U/ml
  No. of anti-S33-positive sera: 0
anti-S33 antibodies; Infectious diseases (77)
  Mean value: 0.67 U/ml
  Top value: 3.3 U/ml
anti-S33 antibodies; Infectious diseases (77), cut-off 13 U/ml
  No. of anti-S33-positive sera: 0
anti-S33 antibodies; MCTD (26)
  Mean value: 3.1 U/ml
  Top value: 12.8 U/ml
anti-S33 antibodies; MCTD (26), cut-off 13 U/ml
  No. of anti-S33-positive sera: 0
anti-S33 antibodies; PM/DM (13)
  Mean value: 2.8 U/ml
  Top value: 9.6 U/ml
anti-S33 antibodies; PM/DM (13), cut-off 13 U/ml
  No. of anti-S33-positive sera: 0
anti-S33 antibodies; RA (86)
  Mean value: 1.6 U/ml
  Top value: 24.6 U/ml
anti-S33 antibodies; RA (86), cut-off 13 U/ml
  % of anti-S33-positive sera: (1.2) %
  No. of anti-S33-positive sera: 1
anti-S33 antibodies; Rheumatic diseases (181)
  Mean value: 2.2 U/ml
  Top value: 24.6 U/ml
anti-S33 antibodies; [4]
  % of anti-S33-positive sera: (0.6) %
  No. of anti-S33-positive sera: 1
anti-S33 antibodies; SLE (n = 176)
  Mean value: 43 U/ml and 43.0 U/ml
anti-S33 antibodies; SLE (n = 176), cut-off 13 U/ml
  No. of anti-S33-positive sera: 28 and 15
anti-S33 antibodies; SLE patient #89, anti-SmD negative
  anti-S33 peptide reactivity: 15.4 units
anti-S33 antibodies; SLE patient #92, anti-SmD negative
  anti-S33 peptide reactivity: 21.3 units
anti-S33 antibodies; SLE patient #9811, anti-SmD negative
  anti-S33 peptide reactivity: 13.9 units
anti-S33 antibodies; SLE patient #20627, anti-SmD negative
  anti-S33 peptide reactivity: 41.3 units
anti-S33 antibodies; SLE patient, beginning of the 18 month follow-up study, inactive phase of disease
  immunoresponse to the new Sm antigen (S33): 337.5 U/ml
anti-S33 antibodies; SSc (26)
  Mean value: 2.4 U/ml
  Top value: 4.3 U/ml
anti-S33 antibodies; SSc (26), cut-off 13 U/ml
  No. of anti-S33-positive sera: 0
anti-S33 antibodies; blood donors
  reactivity range: 0.4-11.5 U/ml
anti-S33 antibodies; controls (n=449), cut-off 13 U/ml
  % of control sera tested positive: 0.2%
anti-S33 antibodies; pSS (24)
  Mean value: 1.9 U/ml
  Top value: 3.9 U/ml
anti-S33 antibodies; pSS (24), cut-off 13 U/ml
  No. of anti-S33-positive sera: 0
anti-S33 antibodies; [5]
  S33+ among sera with Aab to La (%): 18.2%
  S33+ among sera with Aab to La (number): 4/22
  S33+ among sera with Aab to Ro-52 (%): 22.7%
  S33+ among sera with Aab to Ro-52 (number): 5/22
  S33+ among sera with Aab to Ro-60 (%): 25%
  S33+ among sera with Aab to Ro-60 (number): 12/48
  S33+ among sera with Aab to SmBB′ (%): 50%
  S33+ among sera with Aab to SmBB′ (number): 11/22
  S33+ among sera with Aab to SmD (%): 68.8%
  S33+ among sera with Aab to SmD (number): 11/16
  S33+ among sera with Aab to U1-68 kD (%): 50%
  S33+ among sera with Aab to U1-A (%): 48%
  S33+ among sera with Aab to U1-A (number): 12/25
  S33+ among sera with Aab to U1-C (%): 42.3%
  S33+ among sera with Aab to U1-C (number): 11/26
  S33+ among sera with Aab to dsDNA (%): 25.5%
  S33+ among sera with Aab to dsDNA (number): 13/51
  S33+ among sera with Aab to histone (%): 26.3%
  S33+ among sera with Aab to histone (number): 10/38
  S33+ among sera with Aab to β2-Glycoprotein (%): 25%
  S33+ among sera with Aab to β2-Glycoprotein (number): 4/16
anti-Sm antibodies [1]
  number of anti-Sm sera recognizing the peptide: all of the five
[3]
  antibody binding of control sera: not with the controls
